Calls of active or inactive are those of the source.
Key:
[1] = molecular target: T1, Calpain-2 catalytic subunit (Sus scrofa, UniProt P43367); assay: m-calpain protease blockers, concentration series – biochemical, fluorogenic peptide substrate, dose response (AID 1420); format: functional
T1 sequence (P43367 whole entry): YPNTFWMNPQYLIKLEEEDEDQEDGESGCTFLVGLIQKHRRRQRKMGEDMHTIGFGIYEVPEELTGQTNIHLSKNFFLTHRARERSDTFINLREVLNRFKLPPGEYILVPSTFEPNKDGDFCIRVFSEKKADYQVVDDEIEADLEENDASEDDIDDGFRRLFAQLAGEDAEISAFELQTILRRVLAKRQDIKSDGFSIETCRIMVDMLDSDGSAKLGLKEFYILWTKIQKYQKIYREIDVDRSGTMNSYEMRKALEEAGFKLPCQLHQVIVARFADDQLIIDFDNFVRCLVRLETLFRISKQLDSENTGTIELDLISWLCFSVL

Fatty acid synthase [2] = molecular target: T2, Fatty acid synthase (Homo sapiens, UniProt P49327); assay: inhibition of human FAS-TE enzyme activity – biochemical, kinetic fluorescence intensity, dose response (AID 624326); format: functional;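 further: rate of fluorescence rise from hydrolysis of a fluorogenic O-methyl fluorescein ester substrate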
T2 sequence (P49327 whole entry): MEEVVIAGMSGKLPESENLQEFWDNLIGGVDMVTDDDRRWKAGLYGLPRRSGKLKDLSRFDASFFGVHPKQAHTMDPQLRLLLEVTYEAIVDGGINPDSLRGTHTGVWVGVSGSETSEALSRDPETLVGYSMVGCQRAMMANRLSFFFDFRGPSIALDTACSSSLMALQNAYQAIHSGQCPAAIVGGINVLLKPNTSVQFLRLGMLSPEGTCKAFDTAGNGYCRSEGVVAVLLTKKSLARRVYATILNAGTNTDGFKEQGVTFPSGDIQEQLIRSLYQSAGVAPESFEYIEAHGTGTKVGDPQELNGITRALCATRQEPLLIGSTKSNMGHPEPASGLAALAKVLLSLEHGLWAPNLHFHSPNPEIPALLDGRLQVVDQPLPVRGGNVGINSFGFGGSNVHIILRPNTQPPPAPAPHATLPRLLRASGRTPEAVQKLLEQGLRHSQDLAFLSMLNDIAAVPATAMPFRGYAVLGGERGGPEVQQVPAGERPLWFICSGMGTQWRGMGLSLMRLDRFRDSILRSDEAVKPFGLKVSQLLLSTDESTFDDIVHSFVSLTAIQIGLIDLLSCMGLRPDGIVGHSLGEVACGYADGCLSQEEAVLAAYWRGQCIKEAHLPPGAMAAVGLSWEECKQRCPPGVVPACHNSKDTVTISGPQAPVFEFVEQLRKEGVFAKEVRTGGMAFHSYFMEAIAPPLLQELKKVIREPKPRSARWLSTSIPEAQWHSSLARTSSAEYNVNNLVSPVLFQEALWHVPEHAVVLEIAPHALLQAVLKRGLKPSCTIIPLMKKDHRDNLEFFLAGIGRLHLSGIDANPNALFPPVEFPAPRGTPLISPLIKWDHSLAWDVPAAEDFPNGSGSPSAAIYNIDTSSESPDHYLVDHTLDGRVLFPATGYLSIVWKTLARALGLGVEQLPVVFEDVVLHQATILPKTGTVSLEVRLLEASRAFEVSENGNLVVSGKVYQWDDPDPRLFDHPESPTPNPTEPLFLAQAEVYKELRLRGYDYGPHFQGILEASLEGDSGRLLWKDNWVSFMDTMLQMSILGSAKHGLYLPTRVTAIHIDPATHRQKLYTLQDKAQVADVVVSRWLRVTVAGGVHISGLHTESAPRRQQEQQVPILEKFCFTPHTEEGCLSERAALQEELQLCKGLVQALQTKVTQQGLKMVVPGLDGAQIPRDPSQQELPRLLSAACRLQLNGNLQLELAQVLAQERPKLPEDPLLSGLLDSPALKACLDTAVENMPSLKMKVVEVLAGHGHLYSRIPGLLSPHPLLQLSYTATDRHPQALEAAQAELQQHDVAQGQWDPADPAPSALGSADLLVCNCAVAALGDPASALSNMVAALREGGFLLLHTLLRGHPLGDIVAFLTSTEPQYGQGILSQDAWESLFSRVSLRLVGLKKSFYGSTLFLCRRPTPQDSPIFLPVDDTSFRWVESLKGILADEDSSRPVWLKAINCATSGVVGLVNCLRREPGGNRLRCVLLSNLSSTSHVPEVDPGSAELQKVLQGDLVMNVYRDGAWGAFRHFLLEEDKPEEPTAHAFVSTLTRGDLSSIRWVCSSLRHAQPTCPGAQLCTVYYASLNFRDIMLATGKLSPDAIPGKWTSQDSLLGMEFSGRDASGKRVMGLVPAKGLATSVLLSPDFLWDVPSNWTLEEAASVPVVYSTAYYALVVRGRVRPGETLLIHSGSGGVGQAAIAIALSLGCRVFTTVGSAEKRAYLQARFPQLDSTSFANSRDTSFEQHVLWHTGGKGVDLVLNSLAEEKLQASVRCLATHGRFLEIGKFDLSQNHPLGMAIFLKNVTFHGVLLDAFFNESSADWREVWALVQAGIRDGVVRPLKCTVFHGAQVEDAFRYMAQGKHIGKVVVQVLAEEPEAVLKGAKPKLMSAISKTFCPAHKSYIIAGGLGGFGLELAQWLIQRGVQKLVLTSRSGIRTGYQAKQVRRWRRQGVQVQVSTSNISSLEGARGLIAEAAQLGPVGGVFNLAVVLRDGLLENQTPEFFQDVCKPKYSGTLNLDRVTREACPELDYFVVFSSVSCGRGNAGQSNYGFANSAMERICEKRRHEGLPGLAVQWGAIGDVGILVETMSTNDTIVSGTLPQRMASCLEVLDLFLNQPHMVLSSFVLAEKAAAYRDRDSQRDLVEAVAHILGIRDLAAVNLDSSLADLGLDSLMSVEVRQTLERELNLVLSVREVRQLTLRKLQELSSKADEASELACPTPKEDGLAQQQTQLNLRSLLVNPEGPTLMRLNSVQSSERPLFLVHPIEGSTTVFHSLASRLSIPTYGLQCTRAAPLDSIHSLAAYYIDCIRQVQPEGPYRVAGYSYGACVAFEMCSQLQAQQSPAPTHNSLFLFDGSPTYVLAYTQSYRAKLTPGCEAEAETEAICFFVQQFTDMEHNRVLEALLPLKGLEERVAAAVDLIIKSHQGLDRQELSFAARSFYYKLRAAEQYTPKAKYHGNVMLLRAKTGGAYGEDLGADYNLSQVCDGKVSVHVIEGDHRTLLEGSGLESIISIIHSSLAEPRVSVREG

Fatty acid synthase [3] = molecular target: T2, Fatty acid synthase; assay: inhibition of human FAS-TE enzyme activity – biochemical, endpoint fluorescence intensity, uHTS hits, dose response (AID 624327); format: functional;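 further: fluorescence from hydrolysis of an O-methyl fluorescein acyl ester substrate by the enzyme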
Caspase-6 = molecular target: T3, Caspase-6 (Homo sapiens, UniProt P55212); assay: inhibition of CASP6 peptide cleavage – biochemical, VEID-R110 fluorescence, cherry-pick, dose response (AID 720632)
T3 sequence (P55212 whole entry): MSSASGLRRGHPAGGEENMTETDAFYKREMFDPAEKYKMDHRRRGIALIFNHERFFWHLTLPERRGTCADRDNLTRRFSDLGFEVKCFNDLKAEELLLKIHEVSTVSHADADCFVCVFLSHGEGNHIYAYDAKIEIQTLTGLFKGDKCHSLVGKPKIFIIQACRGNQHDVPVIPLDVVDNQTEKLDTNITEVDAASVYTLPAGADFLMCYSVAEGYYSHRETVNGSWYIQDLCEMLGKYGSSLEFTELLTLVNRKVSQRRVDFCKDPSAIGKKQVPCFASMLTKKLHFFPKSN

Albumin = Albumin (Bos taurus, UniProt P02769); assay: Counterscreen for inhibitors of T-cell receptor (TCR)-CD3 interaction: Fluorescence-based biochemical high throughput dose response assay to identify inhibitors of T-cell receptor (TCR)-CD3 interaction using a TAMRA-labeled BSA probe.; format: functional
Sequence of Albumin (P02769 whole entry): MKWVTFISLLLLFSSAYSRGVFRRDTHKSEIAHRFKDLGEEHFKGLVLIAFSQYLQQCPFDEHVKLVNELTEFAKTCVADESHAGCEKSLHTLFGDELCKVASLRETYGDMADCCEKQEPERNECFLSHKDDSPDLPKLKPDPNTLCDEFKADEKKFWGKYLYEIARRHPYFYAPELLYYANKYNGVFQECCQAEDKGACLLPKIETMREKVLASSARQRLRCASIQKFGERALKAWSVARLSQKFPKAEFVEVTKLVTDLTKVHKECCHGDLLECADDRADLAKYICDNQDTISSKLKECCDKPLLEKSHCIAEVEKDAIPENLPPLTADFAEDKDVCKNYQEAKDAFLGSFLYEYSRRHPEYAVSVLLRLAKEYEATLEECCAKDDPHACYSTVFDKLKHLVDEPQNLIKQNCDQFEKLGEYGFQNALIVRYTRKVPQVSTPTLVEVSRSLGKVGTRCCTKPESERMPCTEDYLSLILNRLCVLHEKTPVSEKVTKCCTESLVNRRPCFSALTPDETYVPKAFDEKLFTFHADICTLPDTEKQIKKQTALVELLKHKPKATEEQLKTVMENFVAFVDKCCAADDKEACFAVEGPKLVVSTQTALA

[4] = molecular target: T4, High affinity choline transporter 1 (Homo sapiens, UniProt Q9GZV3); assay: human choline transporter blockers, potency – cell-based, 5-point CRC, membrane potential dye, dose response (AID 504840); format: functional
T4 sequence (Q9GZV3 whole entry): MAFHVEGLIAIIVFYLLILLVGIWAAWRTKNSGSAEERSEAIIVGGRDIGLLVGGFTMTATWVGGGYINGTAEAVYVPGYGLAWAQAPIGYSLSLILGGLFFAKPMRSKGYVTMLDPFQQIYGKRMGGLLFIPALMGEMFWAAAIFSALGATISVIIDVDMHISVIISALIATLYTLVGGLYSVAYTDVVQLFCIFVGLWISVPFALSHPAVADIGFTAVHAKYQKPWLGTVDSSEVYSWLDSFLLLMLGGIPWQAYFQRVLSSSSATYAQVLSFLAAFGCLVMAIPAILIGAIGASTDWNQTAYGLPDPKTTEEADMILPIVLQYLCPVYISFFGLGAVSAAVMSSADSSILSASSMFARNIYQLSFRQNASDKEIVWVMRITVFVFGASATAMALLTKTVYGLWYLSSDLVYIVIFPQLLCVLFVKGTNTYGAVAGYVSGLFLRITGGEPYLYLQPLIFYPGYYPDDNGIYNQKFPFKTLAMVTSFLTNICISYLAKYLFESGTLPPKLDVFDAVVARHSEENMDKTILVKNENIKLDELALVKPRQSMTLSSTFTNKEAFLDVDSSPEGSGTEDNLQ

[5] = molecular target: T5, Replicative DNA helicase DnaB (Mycobacterium tuberculosis, UniProt P9WMR3); assay: DnaB intein splicing inhibitors, dose response, biochemical, cell-free fluorescence (AID 449749); format: functional
T5 sequence (P9WMR3 whole entry): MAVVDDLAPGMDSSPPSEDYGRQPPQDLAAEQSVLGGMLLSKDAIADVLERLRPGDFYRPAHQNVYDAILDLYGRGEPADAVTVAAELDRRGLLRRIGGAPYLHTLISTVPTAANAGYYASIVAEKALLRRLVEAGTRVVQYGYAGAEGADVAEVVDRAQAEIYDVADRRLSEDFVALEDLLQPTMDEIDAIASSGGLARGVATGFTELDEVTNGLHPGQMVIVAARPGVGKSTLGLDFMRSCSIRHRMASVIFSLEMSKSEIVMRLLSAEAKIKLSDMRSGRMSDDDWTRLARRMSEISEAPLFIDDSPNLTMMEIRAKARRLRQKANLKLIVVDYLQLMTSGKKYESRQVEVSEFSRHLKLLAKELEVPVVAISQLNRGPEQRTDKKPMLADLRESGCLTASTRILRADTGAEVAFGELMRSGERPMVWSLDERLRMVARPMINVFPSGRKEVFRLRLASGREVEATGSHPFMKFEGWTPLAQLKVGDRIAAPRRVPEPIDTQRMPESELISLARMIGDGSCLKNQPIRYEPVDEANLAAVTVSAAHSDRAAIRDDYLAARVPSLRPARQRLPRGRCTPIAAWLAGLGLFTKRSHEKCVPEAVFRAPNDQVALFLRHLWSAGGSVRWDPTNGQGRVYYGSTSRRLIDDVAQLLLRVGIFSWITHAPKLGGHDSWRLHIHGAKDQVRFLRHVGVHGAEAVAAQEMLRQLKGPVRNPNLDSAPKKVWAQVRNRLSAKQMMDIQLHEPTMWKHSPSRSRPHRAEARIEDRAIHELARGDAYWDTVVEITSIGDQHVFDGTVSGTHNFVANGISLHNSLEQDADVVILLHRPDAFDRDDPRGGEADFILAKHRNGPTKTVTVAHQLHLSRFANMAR

Protein RecA = molecular target: T6, Protein RecA (Mycobacterium tuberculosis, UniProt P9WHJ3); assay: Fluorescence Cell-Free Homogeneous Dose Retest to Identify Inhibitors of RecA-Intein Splicing Activity. [Related pubchem assays (depositor defined):AID2097, AID2223, AID489010, AID492950]; format: functional
T6 sequence (P9WHJ3 whole entry): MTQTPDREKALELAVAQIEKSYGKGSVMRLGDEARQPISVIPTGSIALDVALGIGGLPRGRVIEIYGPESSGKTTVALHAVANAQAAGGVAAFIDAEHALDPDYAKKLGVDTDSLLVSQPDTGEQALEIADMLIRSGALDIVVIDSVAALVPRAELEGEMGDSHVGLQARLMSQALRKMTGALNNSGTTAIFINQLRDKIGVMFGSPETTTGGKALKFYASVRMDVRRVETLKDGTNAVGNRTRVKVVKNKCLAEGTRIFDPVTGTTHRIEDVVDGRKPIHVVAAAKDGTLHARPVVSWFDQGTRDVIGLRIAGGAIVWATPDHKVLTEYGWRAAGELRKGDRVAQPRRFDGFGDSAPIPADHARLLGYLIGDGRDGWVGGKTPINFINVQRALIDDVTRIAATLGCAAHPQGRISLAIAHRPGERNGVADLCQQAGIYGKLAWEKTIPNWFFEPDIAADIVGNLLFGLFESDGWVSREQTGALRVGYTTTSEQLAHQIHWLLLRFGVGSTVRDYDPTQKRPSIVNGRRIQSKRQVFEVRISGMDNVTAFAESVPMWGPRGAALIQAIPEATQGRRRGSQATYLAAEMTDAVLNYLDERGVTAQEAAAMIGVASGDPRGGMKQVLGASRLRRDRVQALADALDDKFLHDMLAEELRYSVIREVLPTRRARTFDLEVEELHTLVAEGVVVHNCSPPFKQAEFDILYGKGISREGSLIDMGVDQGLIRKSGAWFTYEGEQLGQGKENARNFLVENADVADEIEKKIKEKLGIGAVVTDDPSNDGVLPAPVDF

Large T antigen = Large T antigen (Simian virus 40, UniProt P03070); format: functional, Betapolyomavirus macacae;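 further: Confirmatory-stage PubChem screen for compounds that inhibit SV40 T antigen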
Sequence of Large T antigen (P03070 whole entry): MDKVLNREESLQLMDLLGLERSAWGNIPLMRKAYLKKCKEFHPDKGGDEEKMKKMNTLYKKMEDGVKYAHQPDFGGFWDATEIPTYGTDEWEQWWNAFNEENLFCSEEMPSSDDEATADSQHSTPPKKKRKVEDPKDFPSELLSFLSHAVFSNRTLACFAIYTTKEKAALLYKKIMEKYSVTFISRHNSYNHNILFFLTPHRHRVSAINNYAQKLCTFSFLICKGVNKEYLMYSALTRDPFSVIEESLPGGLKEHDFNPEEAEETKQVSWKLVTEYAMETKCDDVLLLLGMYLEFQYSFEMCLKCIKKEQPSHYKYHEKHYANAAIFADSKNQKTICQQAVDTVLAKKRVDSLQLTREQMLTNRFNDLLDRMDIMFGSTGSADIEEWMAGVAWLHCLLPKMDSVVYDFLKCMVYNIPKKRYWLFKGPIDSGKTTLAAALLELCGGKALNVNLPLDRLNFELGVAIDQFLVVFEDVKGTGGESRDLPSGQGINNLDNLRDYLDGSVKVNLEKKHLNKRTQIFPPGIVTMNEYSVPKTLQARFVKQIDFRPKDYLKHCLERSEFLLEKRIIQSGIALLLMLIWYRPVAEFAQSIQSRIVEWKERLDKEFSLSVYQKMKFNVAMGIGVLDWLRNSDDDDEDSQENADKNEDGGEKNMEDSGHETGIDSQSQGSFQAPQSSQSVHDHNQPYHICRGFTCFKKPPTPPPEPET

Genome polyprotein = Genome polyprotein (dengue virus type 2, UniProt P29990); assay: flavivirus cap methylation enzyme inhibition – biochemical, confirmation dose response, primary screen (AID 588689); format: functional
Sequence of Genome polyprotein (P29990 2492-3391 limits assumed): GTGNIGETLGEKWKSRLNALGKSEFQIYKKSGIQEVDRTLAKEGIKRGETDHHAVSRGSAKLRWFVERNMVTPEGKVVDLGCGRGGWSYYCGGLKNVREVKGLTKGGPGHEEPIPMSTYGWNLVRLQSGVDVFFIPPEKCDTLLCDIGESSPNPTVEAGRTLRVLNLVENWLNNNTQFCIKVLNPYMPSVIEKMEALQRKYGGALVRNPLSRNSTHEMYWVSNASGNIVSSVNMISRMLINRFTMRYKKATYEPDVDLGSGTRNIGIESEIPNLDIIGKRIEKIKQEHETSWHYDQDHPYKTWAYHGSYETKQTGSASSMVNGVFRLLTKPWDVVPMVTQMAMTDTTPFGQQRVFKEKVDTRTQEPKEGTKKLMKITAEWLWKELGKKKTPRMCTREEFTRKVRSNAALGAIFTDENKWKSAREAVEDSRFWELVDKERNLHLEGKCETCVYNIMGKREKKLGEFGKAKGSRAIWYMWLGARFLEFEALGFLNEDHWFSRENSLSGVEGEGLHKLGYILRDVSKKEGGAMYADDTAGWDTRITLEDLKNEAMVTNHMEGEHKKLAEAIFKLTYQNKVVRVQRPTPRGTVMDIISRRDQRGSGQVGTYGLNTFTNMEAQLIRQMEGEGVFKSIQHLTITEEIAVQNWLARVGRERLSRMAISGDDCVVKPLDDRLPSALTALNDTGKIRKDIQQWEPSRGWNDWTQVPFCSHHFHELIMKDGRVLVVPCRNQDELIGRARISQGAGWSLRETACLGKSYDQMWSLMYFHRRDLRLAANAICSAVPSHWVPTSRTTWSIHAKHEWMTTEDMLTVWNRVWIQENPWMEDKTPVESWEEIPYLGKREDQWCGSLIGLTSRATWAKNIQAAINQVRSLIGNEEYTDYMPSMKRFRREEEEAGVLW

H4 = assay: Luminescence Cell-Based Dose Response HTS to Identify Activators of 5'UTR Stem-Loop Driven Prion Protein mRNA Translation in H4 Neuroglioblastoma Cells. [Related pubchem assays: 1829 (Project Summary), 1814 (Primary HTS)]; format: functional; settings: Homo sapiens
[6] = Counterscreen for inhibitors of Trypanosoma brucei methionyl tRNA synthetase (MetRS): Luminescence-based cell-based high throughput dose response assay to identify compounds that are cytotoxic to Jurkat human T lymphocyte cells.; format: functional
[7] = Luminescence Cell-Based Dose Confirmation HTS to Identify Activators of 5'UTR Stem-Loop Driven Alpha-Synuclein mRNA Translation in H4 Neuroglioblastoma Cells. [Related pubchem assays: 1829 (Project Summary), 1814 (Primary HTS)]; format: functional
[8] = Luminescence Cell-Based Dose Response HTS to Identify Activators of Luciferase Translation or Activity in H4 […] Cells. [Related pubchem assays: 1829 (Project Summary), 1814 (Primary HTS)]; format: functional
Prothrombin = Prothrombin (Homo sapiens, UniProt P00734); assay: Thrombin 1536 HTS Dose Response Confirmation. [Related pubchem assays: 1046 (Thrombin 1536 HTS; hits were confirmed in this assay)]; format: functional
[9] = molecular target: T7, Zinc finger protein mex-5 (Caenorhabditis elegans, UniProt Q9XUB2); assay: potency of MEX-5 RNA-binding blockers – biochemical, C. elegans, fluorescence polarization, dose response (AID 1960)
T7 sequence (Q9XUB2 whole entry): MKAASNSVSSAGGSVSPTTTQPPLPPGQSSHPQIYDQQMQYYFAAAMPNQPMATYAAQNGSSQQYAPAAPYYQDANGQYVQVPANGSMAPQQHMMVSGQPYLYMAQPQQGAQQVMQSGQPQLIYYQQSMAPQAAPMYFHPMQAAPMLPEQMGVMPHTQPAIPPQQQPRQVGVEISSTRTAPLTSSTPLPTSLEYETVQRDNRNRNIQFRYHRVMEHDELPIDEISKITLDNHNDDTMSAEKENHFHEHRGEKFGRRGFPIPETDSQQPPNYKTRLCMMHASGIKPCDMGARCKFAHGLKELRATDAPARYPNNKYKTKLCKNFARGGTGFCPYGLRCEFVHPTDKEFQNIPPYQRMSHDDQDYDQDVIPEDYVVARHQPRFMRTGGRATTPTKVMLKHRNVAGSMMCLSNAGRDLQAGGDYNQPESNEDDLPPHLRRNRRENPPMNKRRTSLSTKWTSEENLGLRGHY

[10] = molecular target: T8, RNA-binding protein pos-1 (Caenorhabditis elegans, UniProt G5EF15); assay: disruptors of C. elegans POS-1 RNA interaction – biochemical, fluorescence polarization, dose response (AID 1964);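 further: purified POS-1 fused to maltose binding protein made in E. coli; potency of compounds blocking POS-1 binding to fluorescent RNA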
T8 sequence (G5EF15 whole entry): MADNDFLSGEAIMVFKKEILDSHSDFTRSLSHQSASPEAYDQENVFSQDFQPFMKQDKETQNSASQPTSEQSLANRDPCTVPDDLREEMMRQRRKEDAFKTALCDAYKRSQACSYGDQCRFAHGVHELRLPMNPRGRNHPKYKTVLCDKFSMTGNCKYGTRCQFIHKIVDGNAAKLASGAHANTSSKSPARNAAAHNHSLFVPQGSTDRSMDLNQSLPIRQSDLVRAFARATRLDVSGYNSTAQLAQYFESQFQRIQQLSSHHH

[11] = molecular target: Heat shock protein HSP 90-alpha (Homo sapiens, UniProt P07900); format: functional, organism-based
Nonstructural protein 1 = Nonstructural protein 1 (Influenza A virus, UniProt Q194T2); format: functional, Influenza A virus (A/California/07/2009(H1N1))
Sequence of Nonstructural protein 1 (Q194T2 whole entry): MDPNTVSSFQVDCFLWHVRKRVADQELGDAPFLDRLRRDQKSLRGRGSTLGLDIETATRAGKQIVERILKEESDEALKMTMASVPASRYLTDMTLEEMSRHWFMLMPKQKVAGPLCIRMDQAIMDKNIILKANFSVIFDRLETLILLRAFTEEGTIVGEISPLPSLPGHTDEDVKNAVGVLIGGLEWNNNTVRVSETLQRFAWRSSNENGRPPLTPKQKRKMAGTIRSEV

CCc1ccc(S(=O)(=O)NCc2cn3c(C)csc3n2)s1
IC50 [1]: 6.07 µM (not active)

COc1ccc([N+](=O)[O-])cc1NC(=O)Nc1ccccc1
IC50 (Fatty acid synthase [2]): 15.5 µM (active)
IC50 (Fatty acid synthase [3]): 19.9 µM (active)

O=C(O)c1ccc(Cl)c(S(=O)(=O)Nc2ccc3c[nH]nc3c2)c1
AC50 (Caspase-6): 11.1 µM (active)

COC(=O)Nc1ccc(S(=O)(=O)NNC(=O)c2c(O)c3ccccc3n(C)c2=O)cc1
IC50 (Albumin): > 94.1 µM (inactive)
IC50 [4]: 13.2 µM (active)

O=C(O)c1cc(Nc2cc(Cl)c3nonc3c2[N+](=O)[O-])ccc1O
AC50 (Caspase-6): 14.6 µM (active)
AC50 [5]: 1.17 µM (active)
EC50 (Protein RecA): 1.33 µM (active)
IC50 (Large T antigen): 40.4 µM (active)
IC50 (Genome polyprotein): 8.55 µM (active)

COc1ccccc1CNC(=O)COC(=O)c1cc([N+](=O)[O-])ccc1N1CCOCC1
IC50 (Fatty acid synthase [2]): 1.64 µM (active)
IC50 (Fatty acid synthase [3]): 1.31 µM (active)

Fc1ccccc1CSc1nc2cc(Br)c[nH]c-2n1
EC50 (H4): 20.3 µM (active)
IC50 [6]: 83.3 µM (inactive)
EC50 [7]: 0.116 µM (active)
EC50 [8]: 89.7 µM (active)

Cc1c(Cl)cnc(NC(=O)COC(=O)CCC(=O)c2cccs2)c1Cl
IC50 (Prothrombin): 2.77 µM (active)

Cc1nc(-c2cnn(-c3ccccc3)c2)c2cc(C)oc2n1
IC50 (Prothrombin): > 50 µM (not active)

COc1ccc(Cl)cc1N(CC(=O)N/N=C/c1ccc(OCC(N)=O)cc1)S(C)(=O)=O
AC50 (Caspase-6): 9 µM (active)

CCC(=O)OC1(C)C(=O)C2=COC(c3ccc(OC)cc3)=CC2=C(Br)C1=O (stereo not drawn)
EC50 [9]: 32.9 µM (active)
EC50 [10]: 31.5 µM (active)
AC50 [11]: 1.51 µM (active)
IC50 (Genome polyprotein): > 100 µM (active)

N#Cc1ccc(Sc2nc3ccccc3[nH]2)cc1C#N
IC50 (Fatty acid synthase [2]): 2.3 µM (active)
IC50 (Fatty acid synthase [3]): 2.7 µM (active)

C=C(C)COc1ccc(-c2n[nH]cc2Oc2ccccc2OCC)c(O)c1
IC50 [1]: 11.7 µM (not active)

Cc1ccnc(NC(=O)c2ccc([N+](=O)[O-])o2)c1
IC50 (Prothrombin): > 50 µM (not active)

CC(C)CSc1ncc(-c2cccc(C(F)(F)F)c2)cn1
IC50 (Fatty acid synthase [2]): 14.2 µM (active)
IC50 (Fatty acid synthase [3]): 15.5 µM (active)

COc1cc(O)c(/C=N/NC(=O)c2ccncc2)c(OC)c1[N+](=O)[O-]
IC50 (Albumin): > 94.1 µM (inactive)
IC50 (Nonstructural protein 1): 8.82 µM (active)

CC(C)(C)c1csc(N/N=C/c2cccnc2)n1
IC50 [1]: 18.6 µM (not active)
